Assay [1] concerns the target DGKalpha (Homo sapiens, UniProt P23743). Kind of assay: Translocation DGKalpha. Format: cell-based.
Assay [2] deals with T1, human DGKα (Homo sapiens, UniProt P23743).
T1 construct: TVMV protease cleavage site (C); Hexa-His (C); made in house; host or cells: Sf9 insect cells (baculovirus)
The assay is described as follows: In vitro DGK inhibition assay, DGKα liposome (LIPGLO) assay. Format: biochemical. Conditions: read-out: Enzyme Inhibition DGKalpha IC50. In short, it runs like this:
(§1)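 Baculovirus/Sf9-expressed His-tagged human DGKα or DGKζ (5 nM) on extruded liposomes (2 mM PS, 0.25 mM DAG, 2.75 mM PC) in MOPS pH 7.5 with MgCl2, CaCl2 and 150 μM ATP, 1 h.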

For assay [3], the target named is DGKzeta (Homo sapiens, UniProt Q13574). The assay is described as follows: Translocation DGKzeta. Format: cell-based.
Chain of DGKzeta (Q13574 whole entry): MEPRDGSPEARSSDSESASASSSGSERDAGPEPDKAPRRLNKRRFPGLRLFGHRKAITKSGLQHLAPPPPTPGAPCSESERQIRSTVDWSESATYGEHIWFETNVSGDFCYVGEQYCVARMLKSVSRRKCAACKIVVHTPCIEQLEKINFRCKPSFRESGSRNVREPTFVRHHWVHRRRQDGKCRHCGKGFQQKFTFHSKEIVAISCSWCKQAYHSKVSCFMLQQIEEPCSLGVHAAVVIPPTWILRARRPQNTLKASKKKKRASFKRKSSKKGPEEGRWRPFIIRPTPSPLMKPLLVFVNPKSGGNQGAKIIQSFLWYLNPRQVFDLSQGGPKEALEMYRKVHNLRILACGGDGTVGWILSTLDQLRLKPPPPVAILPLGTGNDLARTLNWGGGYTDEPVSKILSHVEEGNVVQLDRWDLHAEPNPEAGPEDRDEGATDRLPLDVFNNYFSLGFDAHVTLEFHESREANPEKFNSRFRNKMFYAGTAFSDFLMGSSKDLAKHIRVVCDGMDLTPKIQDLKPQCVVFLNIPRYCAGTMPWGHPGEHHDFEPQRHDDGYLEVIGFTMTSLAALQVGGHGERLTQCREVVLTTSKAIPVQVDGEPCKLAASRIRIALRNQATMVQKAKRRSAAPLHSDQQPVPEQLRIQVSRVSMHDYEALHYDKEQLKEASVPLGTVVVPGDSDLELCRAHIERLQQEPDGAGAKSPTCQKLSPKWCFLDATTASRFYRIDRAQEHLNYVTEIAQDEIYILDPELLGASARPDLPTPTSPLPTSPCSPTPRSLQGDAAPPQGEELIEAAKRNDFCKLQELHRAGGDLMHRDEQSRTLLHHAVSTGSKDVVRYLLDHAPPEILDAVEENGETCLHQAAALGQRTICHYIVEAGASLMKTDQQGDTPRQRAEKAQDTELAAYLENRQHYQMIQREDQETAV
Assay [4] deals with T2, human DGKζ (Homo sapiens, UniProt Q13574).
T2 construct: TVMV protease cleavage site (C); Hexa-His (C); made in house; host or cells: Sf9 insect cells (baculovirus)
T2 sequence (Q13574 with tags, fused parts or gaps isoform Q13574-4): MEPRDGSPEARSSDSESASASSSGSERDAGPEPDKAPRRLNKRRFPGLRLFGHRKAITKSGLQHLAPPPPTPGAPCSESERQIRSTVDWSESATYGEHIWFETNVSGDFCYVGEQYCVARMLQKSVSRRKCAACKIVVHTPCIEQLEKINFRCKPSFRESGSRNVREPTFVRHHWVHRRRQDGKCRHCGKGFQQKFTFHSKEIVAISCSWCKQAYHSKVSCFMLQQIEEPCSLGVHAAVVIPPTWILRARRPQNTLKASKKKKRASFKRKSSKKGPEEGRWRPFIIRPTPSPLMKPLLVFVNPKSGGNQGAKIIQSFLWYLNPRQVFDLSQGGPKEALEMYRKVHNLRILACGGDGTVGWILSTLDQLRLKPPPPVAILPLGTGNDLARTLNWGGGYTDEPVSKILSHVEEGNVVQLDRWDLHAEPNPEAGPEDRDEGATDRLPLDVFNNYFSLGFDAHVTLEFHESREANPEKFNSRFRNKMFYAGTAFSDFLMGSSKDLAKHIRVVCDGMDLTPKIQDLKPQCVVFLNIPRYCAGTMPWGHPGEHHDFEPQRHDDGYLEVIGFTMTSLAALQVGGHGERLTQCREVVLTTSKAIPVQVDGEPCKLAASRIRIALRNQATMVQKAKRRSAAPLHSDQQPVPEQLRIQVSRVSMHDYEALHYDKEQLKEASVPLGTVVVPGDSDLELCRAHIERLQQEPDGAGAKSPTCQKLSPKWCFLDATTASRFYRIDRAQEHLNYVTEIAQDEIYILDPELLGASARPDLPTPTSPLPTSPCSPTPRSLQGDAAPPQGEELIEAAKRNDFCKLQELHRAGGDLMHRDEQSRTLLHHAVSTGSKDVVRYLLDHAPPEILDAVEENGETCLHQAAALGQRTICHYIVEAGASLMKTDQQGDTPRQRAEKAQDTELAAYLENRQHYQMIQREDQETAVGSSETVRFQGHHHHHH
Kind of assay: In vitro DGK inhibition assay, DGKζ liposome (LIPGLO) assay. Format: biochemical. Conditions: read-out: Enzyme Inhibition DGKzeta IC50. In short, it runs like this:
as §1

pEC50, pIC50: −log10 of the molar value.

This is an account of results in patent US20260049076A1, “Tertiary Amine Substituted Bicyclic Compounds Useful as T Cell Activators” (BRISTOL-MYERS SQUIBB COMPANY, priority 2022, published 2026).

Chain of DGKalpha (P23743 whole entry): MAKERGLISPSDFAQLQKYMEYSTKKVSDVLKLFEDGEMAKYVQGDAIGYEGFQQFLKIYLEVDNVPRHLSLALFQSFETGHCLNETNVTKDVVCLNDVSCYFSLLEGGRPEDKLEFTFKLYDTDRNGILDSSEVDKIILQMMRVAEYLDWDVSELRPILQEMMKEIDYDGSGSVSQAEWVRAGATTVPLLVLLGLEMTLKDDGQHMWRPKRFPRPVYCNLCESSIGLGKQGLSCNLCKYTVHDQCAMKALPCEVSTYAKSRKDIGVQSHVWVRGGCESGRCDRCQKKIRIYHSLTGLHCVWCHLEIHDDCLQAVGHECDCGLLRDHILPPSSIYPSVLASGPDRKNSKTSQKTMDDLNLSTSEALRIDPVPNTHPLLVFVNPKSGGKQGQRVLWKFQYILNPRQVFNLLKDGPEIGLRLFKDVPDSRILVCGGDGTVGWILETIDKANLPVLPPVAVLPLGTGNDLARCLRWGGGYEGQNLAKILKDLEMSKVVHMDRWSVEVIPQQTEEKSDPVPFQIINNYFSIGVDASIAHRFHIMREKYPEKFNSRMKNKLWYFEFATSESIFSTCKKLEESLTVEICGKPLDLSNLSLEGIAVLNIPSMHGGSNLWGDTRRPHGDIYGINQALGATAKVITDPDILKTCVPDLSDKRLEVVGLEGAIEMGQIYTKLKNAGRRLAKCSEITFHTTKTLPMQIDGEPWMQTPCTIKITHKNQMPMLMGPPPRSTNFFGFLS
T1 sequence (P23743 with tags, fused parts or gaps): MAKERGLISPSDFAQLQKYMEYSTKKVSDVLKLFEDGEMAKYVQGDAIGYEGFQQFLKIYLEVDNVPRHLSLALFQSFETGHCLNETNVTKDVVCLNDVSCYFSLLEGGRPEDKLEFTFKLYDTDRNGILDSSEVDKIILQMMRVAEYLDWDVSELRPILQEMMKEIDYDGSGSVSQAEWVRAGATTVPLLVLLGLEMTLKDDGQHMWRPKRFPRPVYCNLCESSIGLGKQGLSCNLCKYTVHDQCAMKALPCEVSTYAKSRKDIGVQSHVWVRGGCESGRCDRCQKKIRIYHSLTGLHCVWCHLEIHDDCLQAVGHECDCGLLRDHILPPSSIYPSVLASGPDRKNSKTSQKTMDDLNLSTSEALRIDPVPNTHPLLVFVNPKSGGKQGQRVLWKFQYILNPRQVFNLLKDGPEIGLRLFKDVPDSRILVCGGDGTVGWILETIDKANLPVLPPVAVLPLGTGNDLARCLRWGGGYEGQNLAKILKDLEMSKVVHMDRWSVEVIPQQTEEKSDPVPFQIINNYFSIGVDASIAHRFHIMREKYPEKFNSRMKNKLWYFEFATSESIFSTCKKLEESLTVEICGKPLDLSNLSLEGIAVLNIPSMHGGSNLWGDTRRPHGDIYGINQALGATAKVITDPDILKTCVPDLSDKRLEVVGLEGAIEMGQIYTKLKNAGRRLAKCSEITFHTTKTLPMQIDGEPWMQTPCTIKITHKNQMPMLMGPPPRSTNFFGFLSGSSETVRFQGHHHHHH

As to `Cn1c(=O)cc(N(CC2CC2)c2ccc(Br)cc2)c2nc(C#N)ccc21` [Example 18, 8-[(4-bromophenyl)(cyclopropylmethyl)amino]-5-methyl-6-oxo-5,6-dihydro-1,5-naphthyridine-2-carbonitrile], the pEC50 in assay [1] is 5.57; in assay [3], 5.30. Also, the pIC50 was 6.59 in assay [2] and 6.64 in assay [4].

Regarding `Cn1c(=O)cc(N(CC2CC2)c2ccc(OCC(F)(F)F)cc2)c2nc(C#N)ccc21` [Example 37, 8-((cyclopropylmethyl)(4-(2,2,2-trifluoroethoxy)phenyl)amino)-5-methyl-6-oxo-5,6-dihydro-1,5-naphthyridine-2-carbonitrile], the results for the pEC50 in assay [1] and in assay [3] were 5.00 and 5.30, respectively. The pIC50 in assay [2] was 5.96; in assay [4], 6.46.

In the case of `Cc1ccc(N(CC2CC2)c2cc(=O)n(C)c3ccc(C#N)nc23)cc1` [Example 62, 8-((cyclopropylmethyl)(p-tolyl)amino)-5-methyl-6-oxo-5,6-dihydro-1,5-naphthyridine-2-carbonitrile], the results for the pEC50 in assay [1] and in assay [3] were 6.12 and 6.27, respectively. Also, the pIC50 was 5.42 in assay [2] and 5.54 in assay [4].

As to `Cn1c(=O)cc(N(CC2CC2)c2ccc(OC(F)F)c(C#N)c2)c2nc(C#N)ccc21` [Example 63, 8-((3-cyano-4-(difluoromethoxy)phenyl)(cyclopropylmethyl)amino)-5-methyl-6-oxo-5,6-dihydro-1,5-naphthyridine-2-carbonitrile], the results for the pIC50 in assay [2] and in assay [4] were 5.20 and 4.92, respectively. The compound further gave a pEC50 in assay [3] of 5.89.

As for `Cn1c(=O)cc(N(CC2CC2)c2ccc(F)nc2)c2nc(C#N)ccc21` [Example 64, 8-((cyclopropylmethyl)(6-fluoropyridin-3-yl)amino)-5-methyl-6-oxo-5,6-dihydro-1,5-naphthyridine-2-carbonitrile], the pIC50 in assay [2] is 6.82; in assay [4], 5.52. In assay [3], this compound had a pEC50 of 5.80.

For the compound `Cn1c(=O)cc(N(CC2CC2)c2ccc3occc3c2)c2nc(C#N)ccc21` [Example 65, 8-(benzofuran-5-yl (cyclopropylmethyl)amino)-5-methyl-6-oxo-5,6-dihydro-1,5-naphthyridine-2-carbonitrile], the pEC50 in assay [1] is 5.96; in assay [3], 6.24. Moreover, the figures for the pIC50 in assay [2] and in assay [4] were 5.72 and 5.57, respectively.

Take `Cn1c(=O)cc(N(CC2CC2)c2ccc(C#N)nc2)c2nc(C#N)ccc21` [Example 66, 8-((6-cyanopyridin-3-yl)(cyclopropylmethyl)amino)-5-methyl-6-oxo-5,6-dihydro-1,5-naphthyridine-2-carbonitrile]: the results for the pIC50 in assay [2] and in assay [4] were 4.77 and 5.08, respectively. Also, the pEC50 in assay [3] was 5.52.

For `Cn1c(=O)cc(N(CC2CC2)c2ccc(OC(F)F)nc2)c2nc(C#N)ccc21` [Example 112, 8-((cyclopropylmethyl)(6-(difluoromethoxy)pyridin-3-yl)amino)-5-methyl-6-oxo-5,6-dihydro-1,5-naphthyridine-2-carbonitrile], the figures for the pEC50 in assay [1] and in assay [3] were less than 5.52 and 7.04, respectively. Besides, the results for the pIC50 in assay [2] and in assay [4] were 5.33 and 5.96, respectively.

Turning to `Cc1cc(C2CC2)ccc1N(CC1CC1)c1cc(=O)n(C)c2ccc(C#N)nc12` [Example 113, 8-((4-cyclopropyl-2-methylphenyl) (cyclopropylmethyl)amino)-5-methyl-6-oxo-5,6-dihydro-1,5-naphthyridine-2-carbonitrile], the results for the pEC50 in assay [1] and in assay [3] were less than 5.52 and 6.60, respectively. The pIC50 was 5.32 in assay [2] and 4.54 in assay [4].

As to `Cn1c(=O)cc(N(CC2CC2)c2ccc(C3CC3)nc2)c2nc(C#N)ccc21` [Example 114, 8-((cyclopropylmethyl)(6-cyclopropylpyridin-3-yl)amino)-5-methyl-6-oxo-5,6-dihydro-1,5-naphthyridine-2-carbonitrile], the pEC50 was less than 5.52 in assay [1] and 6.89 in assay [3]. The pIC50 was 5.10 in assay [2] and 5.85 in assay [4].

For `CN(C)c1ccc(N(CC2CC2)c2cc(=O)n(C)c3ccc(C#N)nc23)cc1` [Example 116, 8-((cyclopropylmethyl)(4-(dimethylamino)phenyl)amino)-5-methyl-6-oxo-5,6-dihydro-1,5-naphthyridine-2-carbonitrile], the pEC50 in assay [1] is less than 5.52; in assay [3] it was 6.96. In addition, the pIC50 in assay [2] was 5.06; in assay [4], 5.62.

For `Cc1cc(N(CC2CC2)c2cc(=O)n(C)c3ccc(C#N)nc23)ccc1OC(F)F` [Example 117, 8-((cyclopropylmethyl)(4-(difluoromethoxy)-3-methylphenyl)amino)-5-methyl-6-oxo-5,6-dihydro-1,5-naphthyridine-2-carbonitrile], the pEC50 was less than 5.52 in assay [1] and 6.80 in assay [3]. The pIC50 in assay [2] was 5.06; in assay [4], 5.33.

For `Cn1c(=O)cc(N(CC2CC2)c2ccc(C3CCC3)cc2)c2nc(C#N)ccc21` [Example 118, 8-((4-cyclobutylphenyl) (cyclopropylmethyl)amino)-5-methyl-6-oxo-5,6-dihydro-1,5-naphthyridine-2-carbonitrile], the results for the pIC50 in assay [2] and in assay [4] were 5.03 and 5.89, respectively. The pEC50 in assay [3] was 7.89.

As for `Cn1c(=O)cc(N(CC2CC2)c2ccc(C3CCCCC3)cc2)c2nc(C#N)ccc21` [Example 119, 8-((4-cyclohexylphenyl)(cyclopropylmethyl)amino)-5-methyl-6-oxo-5,6-dihydro-1,5-naphthyridine-2-carbonitrile], the pIC50 in assay [2] was 4.89; in assay [4], 4.92. For the same compound, the pEC50 in assay [3] was 7.39.

With `Cn1c(=O)cc(N(CC2CC2)c2ccc3c(c2)OCCO3)c2nc(C#N)ccc21` [Example 120, 8-((cyclopropylmethyl)(2,3-dihydrobenzo[b][1,4]dioxin-6-yl)amino)-5-methyl-6-oxo-5,6-dihydro-1,5-naphthyridine-2-carbonitrile], the pEC50 in assay [1] was 6.04; in assay [3], 6.48. The pIC50 in assay [2] is 4.89; in assay [4], 5.16.

For the compound `Cn1c(=O)cc(N(CC2CC2)[C@H]2CC[C@H](c3ccccc3)CC2)c2nc(C#N)ccc21` [Example 121, 8-((cyclopropylmethyl)((1r,4r)-4-phenylcyclohexyl)amino)-5-methyl-6-oxo-5,6-dihydro-1,5-naphthyridine-2-carbonitrile], the pIC50 was 4.80 in assay [2] and 4.74 in assay [4]. In assay [3], this compound gave a pEC50 of 6.54.

`Cn1c(=O)cc(N(CC2CC2)c2ccc(C3CC3)c(-c3ccccc3)c2)c2nc(C#N)ccc21` [Example 122, 8-((6-cyclopropyl-[1,1′-biphenyl]-3-yl)(cyclopropylmethyl)amino)-5-methyl-6-oxo-5,6-dihydro-1,5-naphthyridine-2-carbonitrile]: the pEC50 in assay [1] is less than 5.52; in assay [3] it was 6.77. The pIC50 is 4.72 in assay [2] and 4.66 in assay [4].

For `Cn1c(=O)cc(N(CC2CC2)c2ccc(OC(F)F)cn2)c2nc(C#N)ccc21` [Example 123], the pEC50 was less than 5.52 in assay [1] and 6.19 in assay [3]. In addition, the results for the pIC50 in assay [2] and in assay [4] were 4.62 and 5.92, respectively.

Consider `Cn1c(=O)cc(N(CC2CC2)c2ccc(C3CC3)c(-c3ccc(N4CCOCC4)cc3)c2)c2nc(C#N)ccc21` [Example 124, 8-((6-cyclopropyl-4′-morpholino-[1,1′-biphenyl]-3-yl)(cyclopropylmethyl)amino)-5-methyl-6-oxo-5,6-dihydro-1,5-naphthyridine-2-carbonitrile], for which the pEC50 in assay [1] was 5.60; in assay [3] it was 6.74. The pIC50 is 4.47 in assay [2] and less than 4.42 in assay [4].

Regarding `Cn1c(=O)cc(N(CC2CC2)c2ccc(C3CC3)c(-c3ccc(C4CC4)cc3)c2)c2nc(C#N)ccc21` [Example 125, 8-((cyclopropylmethyl)(4′,6-dicyclopropyl-[1,1′-biphenyl]-3-yl)amino)-5-methyl-6-oxo-5,6-dihydro-1,5-naphthyridine-2-carbonitrile], the pEC50 was less than 5.52 in assay [1] and 7.04 in assay [3]. In addition, the values for the pIC50 in assay [2] and in assay [4] were 4.44 and 4.49, respectively.

In the case of `Cn1c(=O)cc(N(CC2CC2)c2ccc(C3CC3)c(-c3cccc(F)c3)c2)c2nc(C#N)ccc21` [Example 126, 8-((6-cyclopropyl-3′-fluoro-[, 1′-biphenyl]-3-yl) (cyclopropylmethyl)amino)-5-methyl-6-oxo-5,6-dihydro-1,5-naphthyridine-2-carbonitrile], the pEC50 in assay [1] was less than 5.52; in assay [3], 7.07. Besides, the pIC50 in assay [2] was less than 4.42; in assay [4], 4.77.

Consider `Cn1c(=O)cc(N(CC2CC2)c2ccc(C3CC3)c(-c3ccc(F)cc3)c2)c2nc(C#N)ccc21` [Example 127, 8-((6-cyclopropyl-4′-fluoro-[1,1′-biphenyl]-3-yl)(cyclopropylmethyl)amino)-5-methyl-6-oxo-5,6-dihydro-1,5-naphthyridine-2-carbonitrile], for which the pEC50 in assay [1] is less than 5.52; in assay [3] it was 7.00. In addition, the pIC50 in assay [2] is less than 4.42; in assay [4], 4.74.

Consider `Cn1c(=O)cc(N(CC2CC2)c2ccc(C3CC3)c(-c3ccc(Cl)cc3)c2)c2nc(C#N)ccc21` [Example 128, 8-((4′-chloro-6-cyclopropyl-[1,1′-biphenyl]-3-yl)(cyclopropylmethyl)amino)-5-methyl-6-oxo-5,6-dihydro-1,5-naphthyridine-2-carbonitrile], for which the pEC50 in assay [1] was less than 5.52; in assay [3], 6.89. In addition, the pIC50 in assay [2] and in assay [4] was less than 4.42 each time.
